Laboratory results from US9675075B2, “Pest control composition” (MEIJI SEIKA PHARMA CO., LTD., priority 2007, dated 2017).

Assays:
Type in all cases: in vivo
Aphis gossypii [1] = assay: Test Example 2: pesticidal effect against Aphis gossypii (Part 2), same test as Test Example 1 with other insecticides, death rate and Colby theoretical value; conditions: other insecticide 0.078 ppm alone (compound 261 0 ppm); for Theoretical value calculated by Colby's formula: Table 21; for Pesticidal effect against Aphis gossypii, death rate: cucumber leaf disk, 3 days
Text: (§1) A leaf disk having a diameter of 2.0 cmφ was cut out from a cucumber grown in a pot and was placed in a 5.0 cm-Schale. Test admixture solutions, prepared by diluting the composition of the present invention with a 50% aqueous acetone solution (0.05% Tween 20 added) to predetermined concentrations specified in Table 18, test single active ingredient solutions in which only compound 261 had been dissolved without mixing other insecticides, or test single active ingredient solutions in which only other insecticides had been dissolved without mixing any pyripyropene derivative were spread over the cucumber leaf disk. The leaf disk was then air dried. Ten larvae at the first instar born of Aphis gossypii were released in the Schale. Thereafter, the Schale was lidded and was allowed to stand in a humidistat chamber (light period 16 hr-dark period 8 hr) (25° C.). […] Death rate (%)={number of dead larvae/(number of survived larvae+number of dead larvae)}×100
(§2) Colby's formula: Theoretical value (%)=100−(A×B)/100
(§3) When the pesticidal effect (Table 18) of the composition of the present invention in, an admixture form against Aphis gossypii exceeded the theoretical value calculated by the Colby's formula shown in Table 19, the admixture was determined to have a synergistic effect.
The same test as in Test Example 1 was performed, except that the other insecticides were changed to those specified in Table 20.

Aphis gossypii [2] = assay: Test Example 1: pesticidal effect against Aphis gossypii (Part 1), cucumber leaf disk, death rate of first-instar larvae and Colby theoretical value; conditions: other insecticide 0.078 ppm alone (compound 261 0 ppm); for Theoretical value calculated by Colby's formula: Table 19; for Death rate of Aphis gossypii by single active ingredient or admixture: cucumber leaf disk, first-instar larvae, 3 days
Text: as §1, §2
wherein A: 100—(death rate when treatment was performed only with compound 261); and • B: 100—(death rate when treatment was performed only with each of flonicamid, acetamiprid, fipronil, imidacloprid)
as §3

Plutella xylostella = assay: Test Example 3: pesticidal effect against Plutella xylostella, cabbage leaf disk, death rate of second-instar larvae and Colby theoretical value; conditions: other insecticide 0.156 ppm alone (compound 261 0 ppm)
Text: A leaf disk having a diameter of 5.0 cmφ was cut out from a cabbage grown in a pot and was placed in a plastic cup. Test admixture solutions, prepared by diluting the composition of the present invention with a 50% aqueous acetone solution (0.05% Tween 20 added) to predetermined concentrations specified in Table 22, test single active ingredient solutions in which only compound 261 had been dissolved without mixing other insecticides, or test single active ingredient solutions in which only other insecticides had been dissolved without mixing any pyripyropene derivative were spread over the cabbage leaf disk. The leaf disk was then air dried. Five larvae at the second instar born of Plutella xylostella were released in the cup. Thereafter, the cup was lidded and was allowed to stand in a humidistat chamber (light period 16 hr-dark period 8 hr) (25° C.). […] Death rate (%)={number of dead larvae/(number of survived larvae+number of dead larvae)}×100
Colby's formula: Theoretical value (%)=100−(A×B)/100 […]
When the pesticidal effect (Table 22) of the composition of the present invention in an admixture form against Plutella xylostella exceeded the theoretical value calculated by the Colby's formula shown in Table 23, the admixture was determined to have a synergistic effect.

For CN/C(=N\[N+](=O)[O-])NCc1cnc(Cl)s1 [clothianidin], the “Theoretical value calculated by Colby's formula” value (“Theoretical value calculated” for short) (Aphis gossypii [1]) was 79% and the “Pesticidal effect against Aphis gossypii, death rate” value (shortened to “Pesticidal effect … death rate”) (Aphis gossypii [1]) was 79%.

In the case of C/C(=N\C#N)N(C)Cc1ccc(Cl)nc1 [acetamiprid], the “Theoretical value calculated” value (Aphis gossypii [2]) was 58% and the “Death rate of Aphis gossypii by single active ingredient or admixture” value (“Death rate of Aphis gossypii” below) (Aphis gossypii [2]) was 58%.

N#Cc1nn(-c2c(Cl)cc(C(F)(F)F)cc2Cl)c(N)c1[S+]([O-])C(F)(F)F (stereo not shown) [fipronil] was tested, and the “Theoretical value calculated” value (Aphis gossypii [2]) was 0% and the “Death rate of Aphis gossypii” value (Aphis gossypii [2]) was 0%.

In the case of CN1COCN(Cc2cnc(Cl)s2)/C1=N\[N+](=O)[O-] [thiamethoxam], the “Theoretical value calculated” value (Aphis gossypii [1]) was 65% and the “Pesticidal effect … death rate” value (Aphis gossypii [1]) was 65%.

For CCOCn1c(-c2ccc(Cl)cc2)c(C#N)c(Br)c1C(F)(F)F [chlorfenapyr], the “Theoretical value calculated” value (Plutella xylostella; Table 23) was 0% and the “Pesticidal effect against Plutella xylostella, deathrate” value (Plutella xylostella; cabbage leaf disk, second-instar larvae, 3 days) was 0%.

With O=[N+]([O-])NC1=NCCN1Cc1ccc(Cl)nc1 [imidacloprid] the “Theoretical value calculated” value (Aphis gossypii [2]) was 20% and the “Death rate of Aphis gossypii” value (Aphis gossypii [2]) was 20%.

CN/C(=N/CC1CCOC1)N[N+](=O)[O-] (stereo not shown) [dinotefuran] was tested, and the “Theoretical value calculated” value (Aphis gossypii [1]) was 40% and the “Pesticidal effect … death rate” value (Aphis gossypii [1]) was 40%.

In the case of N#CCNC(=O)c1cnccc1C(F)(F)F [flonicamid], the “Theoretical value calculated” value (Aphis gossypii [2]) was 10% and the “Death rate of Aphis gossypii” value (Aphis gossypii [2]) was 10%.
